pIC50: −log10 of the molar value.
How the values were obtained:
[1] = target: GDP-bound KRAS protein (aa 1-169), containing both G12D and C118A amino acid substitutions (Homo sapiens (Human), UniProt P01116, C118A/G12D); assay: KRAS G12D Coupled Nucleotide Exchange Assay; format: biochemical; conditions: read-out: KRAS G12D Coupled Exchange IC50
[2] = tested on: AsPC-1 cells; assay: AsPC-1 CTG Assay (CellTiter-Glo cell viability); format: cell-based, human; conditions: Homo sapiens, ASPC1, 72 h, AsPC-1, 72 h; first value of the cell; read-out: G12D/C/V Cell Proliferation CTG (72 h) AsPC-1
Summary of the method: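 IC50 values derive from 4-parameter logistic fits of CellTiter-Glo luminescence, expressed relative to DMSO. Compound dilution series were applied to overnight-seeded AsPC-1 or SW620 cells (RPMI 1640, 10% FBS) for 72 h at 37 °C, 5% CO2.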

[3] = tested on: Phosphorylation of ERK1/2 in AsPC-1 cells; assay: Phospho-ERK1/2 MSD Assay; format: cell-based, human; conditions: Homo sapiens, ASPC1, 2 h, read-out: 2 h p-ERK (AsPC-1 cells), IC50
Summary of the method: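 Read-out: MSD electrochemiluminescent detection of phosphorylated ERK1/2 in whole-cell lysates, fitted to a 4-parameter logistic curve for IC50. Prior to lysis, AsPC-1 cells (25,000 per well) received a 2 h compound dose-response at 37 °C.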

[4] = tested on: MIA PaCa-2 cells; assay: MIA PaCa-2 CTG Assay (CellTiter-Glo cell viability); format: cell-based, human; conditions: Homo sapiens; Mia PaCa-2, 72 h; second value of the cell; read-out: G12D/C/V Cell Proliferation CTG (72 h) Mia PaCa-2
Summary of the method: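 IC50 values come from a 4-parameter logistic fit of CellTiter-Glo luminescence, normalized to DMSO control, after 72 h compound exposure at 37° C, 5% CO2. Cells grew in RPMI 1640 plus 10% FBS and were seeded at 1.67E+04 cells/mL one night before dosing.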

[5] = target: His-tagged KRAS G12D protein (Homo sapiens (Human), UniProt P01116, G12D); assay: KRAS G12D TR-FRET Assay; format: binding; conditions: read-out: KRAS G12D Binding IC50
Summary of the method: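 Each incubation ran at room temperature: enzyme with compound for 30 minutes, peptide for one hour, and detection reagents (0.4 nM europium anti-6×His, 5 nM streptavidin-d2) for one hour more. Protein and peptide stocks were each diluted to 20 nM before addition.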

Sequence of His-tagged KRAS G12D protein (P01116 other isoform, or with tags, fused parts or gaps G12D): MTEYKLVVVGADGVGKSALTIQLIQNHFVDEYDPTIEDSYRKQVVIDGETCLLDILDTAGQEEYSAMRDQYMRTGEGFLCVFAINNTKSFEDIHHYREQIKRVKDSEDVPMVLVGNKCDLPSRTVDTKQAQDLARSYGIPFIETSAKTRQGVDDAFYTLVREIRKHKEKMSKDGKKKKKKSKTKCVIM
Sequence of GDP-bound KRAS protein (aa 1-169), containing both G12D and C118A amino acid substitutions (P01116 other isoform, or with tags, fused parts or gaps G12D/C118A): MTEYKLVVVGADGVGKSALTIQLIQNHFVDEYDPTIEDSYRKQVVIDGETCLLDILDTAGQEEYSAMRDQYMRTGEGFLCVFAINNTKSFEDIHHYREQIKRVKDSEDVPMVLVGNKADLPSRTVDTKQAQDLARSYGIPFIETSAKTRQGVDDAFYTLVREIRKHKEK

`Fc1c2ncc3c(nc(OC[C@@]45CCCN4C[C@H](F)C5)nc13)N1CCCC[C@H](C1)c1cnn(n1)CCCc1c(Cl)cc3[nH]ncc3c1-2` [Example 296, (1R)-10-chloro-33-fluoro-24-(((2R,7aS)-2-fluorotetrahydro-1H-pyrrolo[1,2-a]pyrrol-7a(5H)-yl)methoxy)-4,5,13,14,19,23,25,27,34-nonaazaheptacyclo[25.4.1.1~2,5~.1~18,22~.0~9,17~.0~12,16~.0~21,26~]tetratriaconta-2(34),3,9,11,14,16,18(33),19,21,23,25-undecaene] was tested, and the pIC50 [1] was 8.40, the pIC50 [2] was 6.82 and the pIC50 [3] was 7.90. The pIC50 [4] was 7.28 and the pIC50 [5] was 8.40.
Work on `O=C1OCCCc2c(Cl)cc3[nH]ncc3c2-c2cc3nc(OC[C@@]45CCCN4C[C@H](F)C5)nc(c3cn2)N2CCOC[C@H](C2)O1` [Example 303, (26S)-18-chloro-4-(((2R,7aS)-2-fluorotetrahydro-1H-pyrrolo[1,2-a]pyrrol-7a(5H)-yl)methoxy)-23,25,28-trioxa-1,3,5,9,14,15-hexaazahexacyclo[24.4.1.1~6,10~.0~2,7~.0~11,19~.0~12,16~]dotriaconta-2,4,6,8,10(32),11,13,16,18-nonaen-24-one] yielded a pIC50 [1] of 8.70, a pIC50 [2] of 6.81 and a pIC50 [3] of 8.00. The pIC50 [4] was 7.12 and the pIC50 [5] was 8.40.
With `CN(C)CC1(COc2nc3c4cc(F)c(c(F)c4n2)-c2c(c(Cl)cc4[nH]ncc24)CCCOC(=O)O[C@@H]2COCCN3C2)CC1` [Example 305, p-(26S)-18-chloro-4-((1-((dimethylamino)methyl)cyclopropyl)methoxy)-9,32-difluoro-23,25,28-trioxa-1,3,5,14,15-pentaazahexacyclo[24.4.1.1~6,10~.0~2,7~.0~11,19~.0~12,16~]dotriaconta-2,4,6,8,10(32),11,13,16,18-nonaen-24-one] the pIC50 [1] was 8.52, the pIC50 [2] was 7.21 and the pIC50 [3] was 7.75. For the same molecule, the pIC50 [4] was 6.87 and the pIC50 [5] was 8.40.
`CN1C[C@H](F)C[C@H]1COc1nc2c3cnc(c(F)c3n1)-c1c(c(Cl)cc3[nH]ncc13)CCCOC(=O)O[C@]1(C)COCCN2C1` [Example 318, (26S)-18-chloro-32-fluoro-4-(((2S,4R)-4-fluoro-1-methyl-2-pyrrolidinyl)methoxy)-26-methyl-23,25,28-trioxa-1,3,5,9,14,15-hexaazahexacyclo[24.4.1.1~6,10~.0~2,7~.0~11,19~.0~12,16~]dotriaconta-2,4,6,8,10(32),11,13,16,18-nonaen-24-one] showed a pIC50 [1] of 8.52, a pIC50 [2] of 6.74 and a pIC50 [3] of 7.45. The pIC50 [4] was 7.48 and the pIC50 [5] was 8.30.
For `CN1C[C@H](F)C[C@H]1COc1nc2c3cnc(c(F)c3n1)-c1c(c(Cl)cc3[nH]ncc13)CCOC(=O)O[C@H]1C[C@@]3(CCCN2C3)C1` [Example 320, (1S,3R)-10-chloro-32-fluoro-24-(((2S,4R)-4-fluoro-1-methyl-2-pyrrolidinyl)methoxy)-4,6-dioxa-13,14,19,23,25,27-hexaazaheptacyclo[25.3.1.1~1,3~.1~18,22~.0~9,17~.0~12,16~.0~21,26~]tritriaconta-9,11,14,16,18(32),19,21,23,25-nonaen-5-one], the pIC50 [1] was 8.52, the pIC50 [2] was 6.86 and the pIC50 [3] was 7.86. The pIC50 [4] was 7.10 and the pIC50 [5] was 8.40.
`Cc1cc2[nH]ncc2c2c1CCOC(=O)O[C@H]1C[C@@]3(CCCN(C3)c3nc(OC[C@@H]4C[C@@H](F)CN4C)nc4c(F)c-2ncc34)C1` [Example 321, (1S,3R)-32-fluoro-24-(((2S,4R)-4-fluoro-1-methyl-2-pyrrolidinyl)methoxy)-10-methyl-4,6-dioxa-13,14,19,23,25,27-hexaazaheptacyclo[25.3.1.1~1,3~.1~18,22~.0~9,17~.0~12,16~.0~21,26~]tritriaconta-9,11,14,16,18(32),19,21,23,25-nonaen-5-one] showed a pIC50 [1] of 8.70, a pIC50 [2] of 6.73 and a pIC50 [3] of 7.60. For the same molecule, the pIC50 [4] was 6.79 and the pIC50 [5] was 8.30.
For `CN1[C@H](COc2nc3c4cnc(c(F)c4n2)-c2c(c(Cl)cc4[nH]ncc24)CCCOC(=O)O[C@@H]2COCCN3C2)C[C@H]2C[C@H]21` [Example 329, (26S)-18-chloro-32-fluoro-4-(((1R,3S,5R)-2-methyl-2-azabicyclo[3.1.0]hexan-3-yl)methoxy)-23,25,28-trioxa-1,3,5,9,14,15-hexaazahexacyclo[24.4.1.1~6,10~.0~2,7~.0~11,19~.0~12,16~]dotriaconta-2,4,6,8,10(32),11,13,16,18-nonaen-24-one], the pIC50 [1] was 8.15, the pIC50 [2] was 6.40 and the pIC50 [3] was 6.69. The pIC50 [4] was 6.28 and the pIC50 [5] was 7.85.
Molecule `CN1[C@H](COc2nc3c4cnc(c(F)c4n2)-c2c(c(Cl)cc4[nH]ncc24)CCCOC(=O)O[C@@H]2COCCN3C2)C[C@@H]2C[C@@H]21` [Example 330, (26S)-18-chloro-32-fluoro-4-(((1S,3S,5S)-2-methyl-2-azabicyclo[3.1.0]hexan-3-yl)methoxy)-23,25,28-trioxa-1,3,5,9,14,15-hexaazahexacyclo[24.4.1.1~6,10~.0~2,7~.0~11,19~.0~12,16~]dotriaconta-2,4,6,8,10(32),11,13,16,18-nonaen-24-one] has a pIC50 [1] of 8.70, a pIC50 [2] of 6.89 and a pIC50 [3] of 7.70. It also gave a pIC50 [4] of 7.27 and a pIC50 [5] of 8.40.
`CN1CCC[C@H]1COc1nc2c3cnc(c(F)c3n1)-c1c(c(Cl)cc3[nH]ncc13)CCCOC(=O)O[C@]1(CF)COCCN2C1` [Example 338, (26S)-18-chloro-32-fluoro-26-(fluoromethyl)-4-(((2S)-1-methyl-2-pyrrolidinyl)methoxy)-23,25,28-trioxa-1,3,5,9,14,15-hexaazahexacyclo[24.4.1.1~6,10~.0~2,7~.0~11,19~.0~12,16~]dotriaconta-2,4,6,8,10(32),11,13,16,18-nonaen-24-one] gave a pIC50 [1] of 8.70, a pIC50 [2] of 6.57 and a pIC50 [3] of 7.38. For the same molecule, the pIC50 [4] was 7.46 and the pIC50 [5] was 8.15.
Molecule `O=C1OCCCc2c(Cl)cc3[nH]ncc3c2-c2ncc3c(nc(OC[C@@]45CCCN4C[C@H](F)C5)nc3c2F)N2CCCC[C@](CF)(C2)O1` [Example 340, (26R)-18-chloro-32-fluoro-26-(fluoromethyl)-4-(((2R,7aS)-2-fluorotetrahydro-1H-pyrrolo[1,2-a]pyrrol-7a(5H)-yl)methoxy)-23,25-dioxa-1,3,5,9,14,15-hexaazahexacyclo[24.4.1.1~6,10~.0~2,7~.0~11,19~.0~12,16~]dotriaconta-2,4,6,8,10(32),11,13,16,18-nonaen-24-one] has a pIC50 [1] of 9.00, a pIC50 [2] of 7.38 and a pIC50 [3] of 8.60. For the same molecule, the pIC50 [4] was 7.77 and the pIC50 [5] was 8.40.
In the case of `[2H]C([2H])([2H])[C@@]12COCCN(C1)c1nc(OC[C@@]34CCCN3C[C@H](F)C4)nc3c(F)c(ncc13)-c1c(c(Cl)cc3[nH]ncc13)CCCOC(=O)O2` [Example 353, (26S)-18-chloro-32-fluoro-4-(((2R,7aS)-2-fluorotetrahydro-1H-pyrrolo[1,2-a]pyrrol-7a(5H)-yl)methoxy)-26-(~2~H_3_)methyl-23,25,28-trioxa-1,3,5,9,14,15-hexaazahexacyclo[24.4.1.1~6,10~.0~2,7~.0~11,19~.0~12,16~]dotriaconta-2,4,6(32),7,9,11,13,16,18-nonaen-24-one], the IC50 [1] was 1 nM, the pIC50 [2] was 7.66 and the pIC50 [3] was 8.72. For the same molecule, the pIC50 [4] was 8.52 and the pIC50 [5] was 8.52.
Molecule `C[C@@]12COCCN(C1)c1nc(OC[C@@]34CCCN3C[C@@H](F)C4)nc3c(F)c(ncc13)-c1c(c(Cl)cc3[nH]ncc13)CCCOC(=O)O2` [Example 359, (26S)-18-chloro-32-fluoro-4-(((25,7aS)-2-fluorotetrahydro-1H-pyrrolo[1,2-a]pyrrol-7a(5H)-yl)methoxy)-26-methyl-23,25,28-trioxa-1,3,5,9,14,15-hexaazahexacyclo[24.4.1.1~6,10~.0~2,7~.0~11,19~.0~12,16~]dotriaconta-2,4,6(32),7,9,11,13,16,18-nonaen-24-one] has a pIC50 [1] of 8.40, a pIC50 [2] of 6.39 and a pIC50 [3] of 7.00. For the same molecule, the pIC50 [4] was 6.97 and the pIC50 [5] was 7.92.
`O=C1OCCCc2c(Cl)cc3[nH]ncc3c2-c2ncc3c(nc(OC[C@@]45CCCN4C[C@@H](F)C5)nc3c2F)N2CCOC[C@H](C2)O1` [Example 360, (26S)-18-chloro-32-fluoro-4-(((25,7aS)-2-fluorotetrahydro-1H-pyrrolo[1,2-a]pyrrol-7a(5H)-yl)methoxy)-23,25,28-trioxa-1,3,5,9,14,15-hexaazahexacyclo[24.4.1.1~6,10~.0~2,7~.0~11,19~.0~12,16~]dotriaconta-2,4,6(32),7,9,11,13,16,18-nonaen-24-one] showed a pIC50 [1] of 8.52, a pIC50 [2] of 6.34 and a pIC50 [3] of 6.93. It also gave a pIC50 [4] of 6.46 and a pIC50 [5] of 8.00.

Source: patent US20240294551A1 (AMGEN INC., priority 2022, published 2024)
